From patent US20260139003A1, “PEPTIDE WITH ACTIVITY OF PROMOTING HAIR GROWTH AND INHIBITING HAIR LOSS AND USE THEREOF” (CAREGEN CO., LTD., priority 2022, published 2026)
Where no end group is shown, it is not given here.

Columns and labels:
Keratin 19 = Keratin 19 gene expression in HHORSCs (RT-PCR); format: cell-based, human; conditions: 500 nM, 5 μM, and 50 μM, 24 hours, FIG. 6
Procedure: (§1) The effect of the peptide prepared in Preparation Example 1 above on the activation of human hair outer root sheath cells (HHORSCs) was confirmed by measuring the gene expression of cytokeratin proteins.
(§2) HHORSCs were seeded in a 96-well cell culture plate at a density of 4×10^3 cells/well and cultured for 24 hours under mesenchymal stem cell complete media conditions. Then, the medium was replaced with serum free mesenchymal stem cell medium and cultured for additional 24 hours. The cultured cell culture was treated with 500 nM, 5 μM, and 50 μM of the peptide prepared in Preparation Example 1 above, respectively, and treated with 100 nM of epidermal growth factor (EGF) as a positive control, and negative when not treated with anything to serve as a negative control (con), and these cultures were cultured at 37° C. for 24 hours. After washing each culture with PBS, RNA was isolated by treatment with 300 μL of eaay blue (Intron, South Korea). The isolated RNA was quantified using Nano drop, and then subjected to cDNA synthesis using a cDNA synthesis kit (Enzynomics, South Korea). Then, a PCR reaction was performed using the primers shown in Table 3 below and a PCR premix (Enzynomics, South Korea). The PCR reaction product was electrophoresed on a 1.5% agarose gel, and the bands were detected using the Bio-Rad Gel Image System.

Cyclin D1 = Cyclin D1 gene expression in HHFDPCs (RT-PCR); format: cell-based, human; conditions: 500 nM, 5 μM, and 50 μM, 24 hours, FIG. 4
Procedure: (§3) The effect of the peptide prepared in Preparation Example 1 above on the expression levels of lymphoid enhancer-binding factor 1 (LEF-1), c-Myc, and Cyclin D1, which are downstream genes of beta-catenin, in human hair follicle dermal papilla cells (HHFDPCs) was determined by the RT-PCR method.
(§4) HHFDPCs were seeded in a 6-well cell culture plate at a density of 4×10^5 cells/well and cultured for 24 hours under mesenchymal stem cell complete media conditions. Then, the medium was replaced with serum free mesenchymal stem cell medium and cultured for additional 24 hours. The cultured cell culture was treated with the peptide prepared in Preparation Example 1 above at 500 nM, 5 μM, and 50 μM, respectively, and treated with 10 ng/mL of rhWnt-3a (recombinant human Wnt-3a protein, R&D systems (MN, USA) to serve as a positive control, and not treated with anything to serve as a negative control (con), and each was cultured at 37° C. for additional 24 hours. After washing each culture with PBS, RNA was isolated therefrom by treatment with 300 μL of eaay blue (Intron, South Korea). The isolated RNA was quantified using Nano drop, and then subjected to cDNA synthesis using a cDNA synthesis kit (Enzynomics, South Korea). […] The PCR reaction product was electrophoresed on a 1.5% agarose gel, and the bands were detected using the Bio-Rad Gel Image System.

beta-catenin = test: Activation of beta-catenin in HHFDPCs (nuclear protein Western blot); format: cell-based, human; conditions: 500 nM, 5 μM, and 50 μM, 24 hours, nuclear proteins, FIG. 3
Procedure: The effect of the peptide prepared in Preparation Example 1 above on the activation of beta-catenin in human hair follicle dermal papilla cells (HHFDPCs) was confirmed by Western blot method.
HHFDPCs were seeded in a 6-well cell culture plate at a density of 4×10^5 cells/well and cultured for 24 hours under mesenchymal stem cell complete media conditions. Then, the medium was replaced with serum-free mesenchymal stem cell medium and cultured for additional 24 hours. The cultured cell culture was treated with the peptide prepared in Preparation Example 1 above at 500 nM, 5 μM, and 50 μM, respectively, and treated with 10 ng/mL of rhWnt-3a (recombinant human Wnt-3a protein, R&D systems (MN, USA) to serve as a positive control, and not treated with anything to serve as a negative control (con). The cultures treated with these materials were incubated at 37° C. for additional 24 hours. After washing each culture with PBS, nuclear proteins were isolated using a nuclear protein extraction kit (Thermo scientific, USA), and an equal amount of protein sample was prepared by BCA quantification. The prepared protein samples were subjected to electrophoresis using 10% SDS-PAGE. […] The resultant was washed 3 times for 15 minutes each with 0.1% PBS-T (0.1% Tween-20 in PBS), treated with ECL solution (GE Healthcare, USA), and detected with a film.

Ha3-II = Ha3-II gene expression in HHORSCs (RT-PCR); format: cell-based, human; conditions: 500 nM, 5 μM, and 50 μM, 24 hours, FIG. 6
Procedure: as §1, §2

FOXN1 = FOXN1 expression in HHGMCs (RT-PCR); format: cell-based, human; conditions: 500 nM, 5 μM, and 50 μM, 24 hours, FIG. 7
Procedure: (§5) The effect of the peptide prepared in Preparation Example 1 above on the activation of human hair germinal matrix cells (HHGMCs) was confirmed by measuring the expression of MSX2, Homeobox C13 (HOXC13), and Forkhead Box N1 (FOXN1), which are transcription factors related to cell activation.
as §2, with “HHGMCs” for “HHORSCs”, “6-well” for “96-well”, “4×10^5” for “4×10^3”, “Then, a PCR reaction was performed using the primers shown in Table 3 below and a PCR premix (Enzynomics, South Korea).” left out

c-Myc = c-Myc gene expression in HHFDPCs (RT-PCR); format: cell-based, human; conditions: 500 nM, 5 μM, and 50 μM, 24 hours, FIG. 4
Procedure: as §3, §4

LEF-1 = LEF-1 gene expression in HHFDPCs (RT-PCR); format: cell-based, human; conditions: 500 nM, 5 μM, and 50 μM, 24 hours, FIG. 4
Procedure: as §3, §4

Keratin 14 = Keratin 14 gene expression in HHORSCs (RT-PCR); format: cell-based, human; conditions: 500 nM, 5 μM, and 50 μM, 24 hours, FIG. 6
Procedure: as §1, §2

HOXC13 = HOXC13 expression in HHGMCs (RT-PCR); format: cell-based, human; conditions: 500 nM, 5 μM, and 50 μM, 24 hours, FIG. 7
Procedure: as §5
as §2, with “HHGMCs” for “HHORSCs”, “6-well” for “96-well”, “4×10^5” for “4×10^3”, “Then, a PCR reaction was performed using the primers shown in Table 3 below and a PCR premix (Enzynomics, South Korea).” left out

Akt = Akt phosphorylation in HHFDPCs (Western blot); format: cell-based, human; conditions: 500 nM, 5 μM, and 50 μM, 24 hours, FIG. 2
Procedure: (§6) The effect of the peptide prepared in Preparation Example 1 above on the activation of proliferation-related signaling molecules in human hair follicle dermal papilla cells (HHFDPCs) was confirmed by Western blot method.
(§7) HHFDPCs were seeded in a 6-well cell culture plate at a density of 4×10^5 cells/well and cultured for 24 hours under mesenchymal stem cell complete media conditions. Then, the medium was replaced with serum-free mesenchymal stem cell medium and cultured for additional 24 hours. The cultured cell culture was treated with the peptide prepared in Preparation Example 1 above at 500 nM, 5 μM, and 50 μM, respectively, 1 μM of Minoxidil (MNX) was treated to serve as a positive control, and not treated with anything to serve as a negative control (con), and the cultures treated with these materials were cultured at 37° C. for additional 24 hours. After washing each culture with PBS, the cells were lysed by treatment with lysis buffer to obtain a cell lysate. Equal amounts of protein samples were prepared by BCA quantification of cell lysates. The prepared protein samples were subjected to electrophoresis using 10% SDS-PAGE. […] The resultant was washed 3 times for 15 minutes each with 0.1% PBS-T (0.1% Tween-20 in PBS), treated with ECL solution (GE Healthcare, USA), and detected with a film.

[1] = test system: extracellular-regulated kinase (ERK); test: ERK phosphorylation in HHFDPCs (Western blot); format: cell-based, human; conditions: 500 nM, 5 μM, and 50 μM, 24 hours, FIG. 2
Procedure: as §6, §7

Keratin 5 = Keratin 5 gene expression in HHORSCs (RT-PCR); format: cell-based, human; conditions: 500 nM, 5 μM, and 50 μM, 24 hours, FIG. 6
Procedure: as §1, §2

DKK-1 = test: Expression of hair loss protein DKK-1 induced by DHT in HHFDPCs (Western blot); format: cell-based, human; conditions: 500 nM, 5 μM, and 50 μM, DHT 100 nM simultaneously, 24 hours, FIG. 5
Excerpt: It is known that in hair follicles, dihydrotestosterone (DHT) promotes the expression of Dickkopf-1 (DKK-1), and DKK-1 induced by DHT inhibits the proliferation of keratinocytes in hair follicles and causes their apoptosis, thereby promoting hair loss (J of Invest Dermatolo. 2008, February, 128(2), pp. 262-269). The effect of the peptide prepared in Preparation Example 1 above on the expression level of the hair loss-inducing protein DKK-1 in human hair follicle dermal papilla cells (HHFDPCs) was confirmed by Western blot method.
HHFDPCs were seeded in a 6-well cell culture plate at a density of 4×10^5 cells/well and cultured for 24 hours under mesenchymal stem cell complete media conditions. Then, the medium was replaced with serum-free mesenchymal stem cell medium and cultured for additional 24 hours. The cultured cell culture was treated with 500 nM, 5 μM, and 50 μM of the peptide prepared in Preparation Example 1 above, respectively. treated with 5 μM of finasteride to serve as a positive control, and not treated with anything to serve as a negative control group (con). […] Equal amounts of protein samples were prepared by BCA quantification of cell lysates. […] The resultant was washed 3 times for 15 minutes each with 0.1% PBS-T (0.1% Tween-20 in PBS), treated with ECL solution (GE Healthcare, USA), and detected with a film.

MSX2 = MSX2 expression in HHGMCs (RT-PCR); format: cell-based, human; conditions: 500 nM, 5 μM, and 50 μM, 24 hours, FIG. 7
Procedure: as §5
as §2, with “HHGMCs” for “HHORSCs”, “6-well” for “96-well”, “4×10^5” for “4×10^3”, “Then, a PCR reaction was performed using the primers shown in Table 3 below and a PCR premix (Enzynomics, South Korea).” left out

[2] = test system: human hair follicle dermal papilla cells (HHFDPCs); test: Proliferation of HHFDPCs (MTT); format: cell-based; conditions: 500 nM, 5 μM, and 50 μM, 72 hours, absorbance 540 nm, FIG. 1
Procedure: The effect of the peptide prepared in Preparation Example 1 above on the proliferation of human hair follicle dermal papilla cells (HHFDPCs) was tested.
HHFDPCs were seeded in a 96-well cell culture plate at a density of 4×10^3 cells/well and cultured for 24 hours under mesenchymal stem cell complete media conditions. Then, the medium was replaced with serum-free mesenchymal stem cell medium and cultured for additional 24 hours. The cultured cell culture was treated with the peptide prepared in Preparation Example 1 above at 500 nM, 5 μM, and 50 μM, respectively, treated with 1 μM VEGF to serve as a positive control, and not treated with anything to serve as a negative control (con), and these cultures were cultured at 37° C. for additional 72 hours. Thereafter, 10 μL of MTT solution (5 mg/mL) was added thereto, and the mixture was incubated in a CO2 incubator at 37° C. for 4 hours, the medium was removed, and 100 μL of DMSO was added thereto and shaken for 10 minutes. Finally, the absorbance was measured at a wavelength of 540 nm using a spectrophotometer (Molecular Devices (SpectraMax iD3, CA, USA)).

## RHVLKRR [peptide of Preparation Example 1]
Keratin 19
  expression of Keratin 19: increasing
Cyclin D1
  gene expression of Cyclin D1: increased
beta-catenin
  beta-catenin activation and movement to the nucleus: activated and its movement to the nucleus was increased
Ha3-II
  expression of Ha3-II: increasing
FOXN1
  expression of FOXN1: increased
c-Myc
  gene expression of c-Myc: increased
LEF-1
  gene expression of LEF-1: increased
Keratin 14
  expression of Keratin 14: increasing
HOXC13
  expression of HOXC13: increased
Akt
  phosphorylation of Akt: increased
[1]
  phosphorylation of extracellular-regulated kinase (ERK): increased
Keratin 5
  expression of Keratin 5: increasing
DKK-1
  expression of DKK-1 induced by DHT treatment: reduced in a concentration-dependent manner
MSX2
  expression of MSX2: increased
[2]
  proliferation of HHFDPCs compared to the negative control (con): promoted the proliferation
